Experiment [1] has as its target T1, yeast RNA triphosphatase (Cet1; S. cerevisiae RTPase) (Saccharomyces cerevisiae, UniProt O13297).
T1 sequence (O13297 2-549): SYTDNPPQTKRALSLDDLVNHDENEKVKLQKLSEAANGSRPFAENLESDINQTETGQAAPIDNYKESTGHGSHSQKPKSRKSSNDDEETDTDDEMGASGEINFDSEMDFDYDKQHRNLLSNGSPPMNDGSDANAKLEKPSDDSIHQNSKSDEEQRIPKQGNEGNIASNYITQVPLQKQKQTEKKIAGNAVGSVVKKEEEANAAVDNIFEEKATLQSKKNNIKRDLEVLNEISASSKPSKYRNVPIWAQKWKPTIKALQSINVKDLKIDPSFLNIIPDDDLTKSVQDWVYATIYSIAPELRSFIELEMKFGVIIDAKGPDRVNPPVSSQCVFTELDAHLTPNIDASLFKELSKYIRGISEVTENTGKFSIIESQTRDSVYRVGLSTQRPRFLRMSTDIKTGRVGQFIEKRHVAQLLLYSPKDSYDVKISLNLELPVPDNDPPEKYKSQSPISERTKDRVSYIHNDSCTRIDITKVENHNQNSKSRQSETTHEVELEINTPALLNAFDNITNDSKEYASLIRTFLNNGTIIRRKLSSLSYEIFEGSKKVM
Nature of the experiment: inhibition of [γ-32P]GTP hydrolysis, TLC of released phosphate. The format is biochemical.

The target of experiment [2] is T1, yeast RNA triphosphatase (Cet1; S. cerevisiae RTPase). As to the kind of experiment: GTPase inhibition kinetics, TLC. The format is biochemical.

pIC50, pKi: −log10 of the molar value.

The pIC50 is the negative decadic logarithm of the IC50, by convention in mol/L. With `O=P(O)(O)OP(=O)(O)OP(=O)(O)OC[C@H]1O[C@@H](n2cnc3c(S)ncnc32)[C@H](O)[C@@H]1O` [A-18], the pIC50 in experiment [1] is 5.09. As usually defined, the pKi is −log10 of the Ki, conventionally taken in molar units. A low value points to a large Ki. On to `Nc1nc(Cl)c2ncn([C@@H]3O[C@H](COP(=O)(O)OP(=O)(O)OP(=O)(O)O)[C@@H](O)[C@H]3O)c2n1` [A-6], for which the pKi in experiment [2] is 5.02. Moreover, the pIC50 in experiment [1] was 4.28. On to `O=P(O)(O)OP(=O)(O)OP(=O)(O)O` [Tripoly-PO4], for which, in experiment [1], the pIC50 was 6.40. On to `Nc1nc2c(ncn2[C@H]2C[C@H](O)[C@@H](COP(=O)(O)OP(=O)(O)OP(=O)(O)O)O2)c(=O)[nH]1` [dGTP], for which the pKi in experiment [2] is 4.85. The pIC50 in experiment [1] is 4.12. Take `Nc1nc2c(ncn2[C@@H]2O[C@H](COP(=O)(O)OP(=O)(O)OP(=O)(O)O)[C@@H](O)[C@H]2O)c(=S)[nH]1` [A-9]: the pKi in experiment [2] is 5.54. For the same compound, in experiment [1], the pIC50 was 4.80.

Take `Nc1nc2c(ncn2[C@@H]2O[C@H](COP(=O)(O)OP(=O)(O)OP(=O)(O)O)[C@@H](O)[C@H]2O)c(=O)[nH]1` [GTP]: in experiment [2], the pKi is 4.80. Also, the pIC50 in experiment [1] was 4.06. The corresponding values for `Cn1c(N)nc2c(ncn2[C@@H]2O[C@H](COP(=O)(O)OP(=O)(O)OP(=O)(O)O)[C@@H](O)[C@H]2O)c1=O` [A-4] are 5.82 and 5.09. The matching figures for `Nc1nc2c(ncn2[C@H]2CC[C@@H](COP(=O)(O)OP(=O)(O)OP(=O)(O)O)O2)c(=O)[nH]1` [A-12]: 5.96 and 5.21. The corresponding values for `O=c1[nH]c(=O)c2ncn([C@@H]3O[C@H](COP(=O)(O)OP(=O)(O)OP(=O)(O)O)[C@@H](O)[C@H]3O)c2[nH]1` [A-8] are 5.74 and 5.00.

In experiment [2], `COc1nc(N)nc2c1ncn2[C@@H]1O[C@H](COP(=O)(O)OP(=O)(O)OP(=O)(O)O)[C@@H](O)[C@H]1O` [A-5] gave a pKi of 4.57. The pIC50 in experiment [1] was 3.82. The matching figures for `O=P(O)(O)OP(=O)(O)OP(=O)(O)OC[C@H]1O[C@@H](n2cnc3c(Cl)ncnc32)[C@H](O)[C@@H]1O` [A-11]: 6.40 and 5.70.

(Values after PMC2699512 (Nucleic Acids Research, 2009).)
